Results as given in US20260041620A1, “NOVEL AMINO ACID BASED SALTS, COMPOSITIONS AND METHODS FOR TREATING SKIN AND IMPROVING SKIN REJUVENATION AND LONGEVITY” (Sytheon Ltd, priority 2023, published 2026).
Read-outs that look alike come from different tables or passages of the source.

What was measured:
HDAC 4 = HDAC 4 (Homo sapiens, UniProt P56524); experiment: HDAC 4 fluorogenic assay kit
Description: (§3) Test materials were stored at room temperature and stock solutions were prepared at 20 mg/ml in DMSO. Further dilutions were made in sterile distilled water immediately before being added to the reaction mixture containing a substrate, and the reaction was triggered by the addition of purified HDAC enzymes, Double distilled water was the negative control and trichostatin (1.5 ug/ml) was used as a positive control for validation of each study. The test procedure was as directed in the assay kits. The products of the reactions were measured by fluorometry at ex/em 350/450 nm using multi-well plate fluorometer Cytofluor 4000 (Applied Biosystem, Foster City, CA) or using SpectraMax i3× Multi-Mode Detection Platform from Molecular Devices (Sunnyvale, CA).
(§4) Statistical significance was assessed with a two-tail Student test. Deviations of ≤20% as compared to water control with p values below 0.05 were considered statistically significant.

MAGL = molecular target: T1, MAGL (Homo sapiens, UniProt Q99685); experiment: MAGL inhibitory assay; format: biochemical
T1 construct: purchased Cayman 10007812
T1 sequence (Q99685 1-303): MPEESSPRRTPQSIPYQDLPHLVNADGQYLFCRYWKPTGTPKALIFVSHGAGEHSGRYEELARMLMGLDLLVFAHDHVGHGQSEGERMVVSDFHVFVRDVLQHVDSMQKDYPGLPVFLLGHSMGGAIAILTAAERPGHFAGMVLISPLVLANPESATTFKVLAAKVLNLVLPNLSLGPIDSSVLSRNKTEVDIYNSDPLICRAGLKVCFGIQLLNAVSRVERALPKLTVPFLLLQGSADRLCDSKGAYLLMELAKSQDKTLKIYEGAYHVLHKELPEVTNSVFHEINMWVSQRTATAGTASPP
Description: Each study was performed in duplicate and the results averaged.
The final concentration in each well was 10 μl of sample, 5.6 μM MAGL (Cayman Catalog #10007812) and 23.6 μM 2-Arachidonoyl Glycerol (Cayman catalog #62160).

HDAC 11 = molecular target: T2, HDAC 11 (Homo sapiens, UniProt Q96DB2); experiment: HDAC 11 fluorogenic assay kit; format: biochemical
T2 construct: purchased BPS Biosciences 50687
T2 sequence (Q96DB2 1-347): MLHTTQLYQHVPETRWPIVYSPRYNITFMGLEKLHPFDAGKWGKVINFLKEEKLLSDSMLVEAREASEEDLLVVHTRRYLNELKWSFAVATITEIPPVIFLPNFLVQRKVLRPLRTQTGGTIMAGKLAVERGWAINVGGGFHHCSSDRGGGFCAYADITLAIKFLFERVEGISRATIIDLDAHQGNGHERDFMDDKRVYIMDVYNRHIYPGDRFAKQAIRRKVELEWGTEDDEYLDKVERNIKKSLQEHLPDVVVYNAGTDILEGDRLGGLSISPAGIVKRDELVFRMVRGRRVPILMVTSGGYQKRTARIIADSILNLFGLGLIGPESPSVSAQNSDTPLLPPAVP
Description: as §3, §4

FABP-3 = molecular target: T3, FABP-3 (Homo sapiens, UniProt P05413); experiment: FABP-3 ELISA inhibitory assay; format: biochemical
T3 construct: purchased Neovateinbio PT-452
T3 sequence (P05413 whole entry): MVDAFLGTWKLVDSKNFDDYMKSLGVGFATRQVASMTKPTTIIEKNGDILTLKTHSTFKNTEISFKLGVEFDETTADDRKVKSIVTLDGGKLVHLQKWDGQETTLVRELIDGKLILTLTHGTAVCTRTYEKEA

HDAC7 = molecular target: T4, HDAC7 (Homo sapiens, UniProt Q8WUI4)
T4 sequence (Q8WUI4 1-952): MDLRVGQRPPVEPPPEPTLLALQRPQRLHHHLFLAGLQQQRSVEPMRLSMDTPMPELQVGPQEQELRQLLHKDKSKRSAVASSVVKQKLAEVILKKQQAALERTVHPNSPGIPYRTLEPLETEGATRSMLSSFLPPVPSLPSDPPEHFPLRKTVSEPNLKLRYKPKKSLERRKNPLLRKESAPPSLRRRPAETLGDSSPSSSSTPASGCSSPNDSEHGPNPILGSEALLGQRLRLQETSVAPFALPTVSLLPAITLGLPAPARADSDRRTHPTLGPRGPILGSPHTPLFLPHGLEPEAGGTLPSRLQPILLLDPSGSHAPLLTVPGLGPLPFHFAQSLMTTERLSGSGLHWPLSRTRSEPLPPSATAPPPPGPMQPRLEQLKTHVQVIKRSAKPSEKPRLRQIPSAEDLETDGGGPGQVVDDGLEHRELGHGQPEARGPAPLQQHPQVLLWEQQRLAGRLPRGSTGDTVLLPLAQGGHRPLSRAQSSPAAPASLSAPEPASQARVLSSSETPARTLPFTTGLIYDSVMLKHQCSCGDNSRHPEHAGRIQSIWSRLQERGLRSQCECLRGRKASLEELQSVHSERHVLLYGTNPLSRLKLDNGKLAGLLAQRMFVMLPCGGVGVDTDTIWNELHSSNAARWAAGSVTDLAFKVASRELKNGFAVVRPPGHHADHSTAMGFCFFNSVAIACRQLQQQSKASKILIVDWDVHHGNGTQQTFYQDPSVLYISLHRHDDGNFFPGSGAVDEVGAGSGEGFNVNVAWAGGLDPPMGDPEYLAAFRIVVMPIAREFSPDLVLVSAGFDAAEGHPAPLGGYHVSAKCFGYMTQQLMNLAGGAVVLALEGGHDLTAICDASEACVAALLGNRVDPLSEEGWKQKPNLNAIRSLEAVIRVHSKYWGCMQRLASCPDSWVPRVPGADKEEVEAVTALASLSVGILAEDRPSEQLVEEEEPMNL
Description: as §3, §4

HDAC10 = molecular target: T5, HDAC10 (Homo sapiens, UniProt Q969S8)
T5 sequence (Q969S8 1-669): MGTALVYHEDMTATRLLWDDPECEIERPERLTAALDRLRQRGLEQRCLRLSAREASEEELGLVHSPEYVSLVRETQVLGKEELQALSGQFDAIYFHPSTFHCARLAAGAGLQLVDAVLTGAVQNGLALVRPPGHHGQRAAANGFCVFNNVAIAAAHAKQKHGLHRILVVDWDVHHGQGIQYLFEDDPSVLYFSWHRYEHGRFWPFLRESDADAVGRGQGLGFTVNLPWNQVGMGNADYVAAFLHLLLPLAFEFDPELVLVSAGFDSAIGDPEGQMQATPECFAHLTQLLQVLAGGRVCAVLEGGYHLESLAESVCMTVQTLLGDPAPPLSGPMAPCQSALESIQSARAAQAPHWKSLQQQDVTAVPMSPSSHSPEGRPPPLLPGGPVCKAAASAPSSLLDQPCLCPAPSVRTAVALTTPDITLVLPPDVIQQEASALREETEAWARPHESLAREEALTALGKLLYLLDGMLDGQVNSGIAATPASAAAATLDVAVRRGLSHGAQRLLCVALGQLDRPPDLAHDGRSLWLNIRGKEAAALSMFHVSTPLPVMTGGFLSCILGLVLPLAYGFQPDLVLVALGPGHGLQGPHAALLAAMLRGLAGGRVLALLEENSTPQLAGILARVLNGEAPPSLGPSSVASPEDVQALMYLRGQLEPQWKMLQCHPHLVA
Description: as §3, §4

HDAC1 = HDAC1 (Homo sapiens, UniProt Q13547); experiment: HDAC 1 fluorogenic assay kit; conditions: 200 ug/ml
Sequence of HDAC1 (Q13547 whole entry): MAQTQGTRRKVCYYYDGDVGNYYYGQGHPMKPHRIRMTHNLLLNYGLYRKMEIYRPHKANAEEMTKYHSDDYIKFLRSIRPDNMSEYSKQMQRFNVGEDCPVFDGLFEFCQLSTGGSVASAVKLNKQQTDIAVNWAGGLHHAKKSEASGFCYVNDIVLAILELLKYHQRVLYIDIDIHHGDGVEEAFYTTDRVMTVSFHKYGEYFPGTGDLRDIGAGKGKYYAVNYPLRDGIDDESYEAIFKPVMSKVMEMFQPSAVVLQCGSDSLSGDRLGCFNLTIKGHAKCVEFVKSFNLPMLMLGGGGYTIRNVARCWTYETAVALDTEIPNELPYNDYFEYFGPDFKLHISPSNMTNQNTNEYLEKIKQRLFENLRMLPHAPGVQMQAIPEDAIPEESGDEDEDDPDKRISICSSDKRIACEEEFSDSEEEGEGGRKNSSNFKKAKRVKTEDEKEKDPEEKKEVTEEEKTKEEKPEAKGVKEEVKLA
Description: as §3, §4

FAAH = molecular target: T6, FAAH (Homo sapiens, UniProt O00519); experiment: FAAH fluorescence-based inhibitory assay; format: biochemical
T6 sequence (O00519 1-579): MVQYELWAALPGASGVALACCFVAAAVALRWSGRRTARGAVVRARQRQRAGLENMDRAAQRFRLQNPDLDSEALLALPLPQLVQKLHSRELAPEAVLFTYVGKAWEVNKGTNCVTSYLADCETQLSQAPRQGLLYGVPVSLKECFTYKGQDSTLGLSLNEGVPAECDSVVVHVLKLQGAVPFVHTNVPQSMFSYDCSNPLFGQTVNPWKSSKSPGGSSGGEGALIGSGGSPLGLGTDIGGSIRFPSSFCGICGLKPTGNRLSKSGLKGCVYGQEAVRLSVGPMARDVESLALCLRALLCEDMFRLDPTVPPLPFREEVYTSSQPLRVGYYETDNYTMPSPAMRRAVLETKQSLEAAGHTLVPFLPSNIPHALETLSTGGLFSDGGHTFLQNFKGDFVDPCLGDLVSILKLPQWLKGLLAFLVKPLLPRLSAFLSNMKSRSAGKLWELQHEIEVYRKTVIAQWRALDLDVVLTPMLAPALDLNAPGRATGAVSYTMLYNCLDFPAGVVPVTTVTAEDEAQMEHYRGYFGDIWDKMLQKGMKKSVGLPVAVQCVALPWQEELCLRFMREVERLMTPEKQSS

HDAC 3 = HDAC 3 (Homo sapiens, UniProt O15379)
Sequence of HDAC 3 (O15379 whole entry): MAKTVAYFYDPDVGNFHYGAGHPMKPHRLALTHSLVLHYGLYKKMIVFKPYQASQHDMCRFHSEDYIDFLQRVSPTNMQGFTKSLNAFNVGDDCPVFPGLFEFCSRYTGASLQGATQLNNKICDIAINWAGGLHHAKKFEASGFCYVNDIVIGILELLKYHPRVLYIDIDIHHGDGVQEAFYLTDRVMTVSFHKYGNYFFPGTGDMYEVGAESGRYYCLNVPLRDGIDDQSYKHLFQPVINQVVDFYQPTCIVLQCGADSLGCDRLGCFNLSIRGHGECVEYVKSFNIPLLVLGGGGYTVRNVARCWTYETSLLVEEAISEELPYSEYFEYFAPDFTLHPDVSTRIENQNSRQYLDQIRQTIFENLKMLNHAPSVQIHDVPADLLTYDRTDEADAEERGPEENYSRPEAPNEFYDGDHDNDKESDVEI
Sequence of HDAC 3 (Q9Y618 395-489 partner limits assumed): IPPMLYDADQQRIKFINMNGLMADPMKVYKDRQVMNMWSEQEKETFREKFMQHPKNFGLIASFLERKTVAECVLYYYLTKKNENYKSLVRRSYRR
Description: as §3, §4

FABP-5 = molecular target: T7, FABP-5 (Homo sapiens, UniProt Q01469); experiment: FABP-5 ELISA inhibitory assay; format: biochemical
T7 construct: purchased Raybiotech 268-10276-1
T7 sequence (Q01469 whole entry): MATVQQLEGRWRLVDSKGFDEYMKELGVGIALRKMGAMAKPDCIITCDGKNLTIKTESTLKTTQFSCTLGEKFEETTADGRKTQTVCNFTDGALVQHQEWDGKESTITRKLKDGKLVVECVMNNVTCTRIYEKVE

Type IV Collagen = Type IV Collagen Assay (ELISA, fibroblast culture medium); format: cell-based, human; conditions: 10 μg/ml, 48 hours; untreated 7.76 ± 0.92
Description: (§1) In the study, human neonatal fibroblasts were seeded into the individual wells of a 48-well plate in 0.25 ml of Fibroblasts Growth Media (FGM) and incubated overnight at 37±2° C. and a 5±1% CO2 atmosphere. On the following day the media was removed via aspiration to eliminate non-adherent cells and replaced with 0.5 ml of fresh FGM. The cells were grown until confluent, with a media change every 48 to 72 hours. Upon reaching confluency the cells were treated for 24 hours with Dulbecco's Modified Eagle's medium (DMED) supplemented with 1.5% Fetal Bovine Serum (FBS) to wash out any effects from the growth factors included in the normal culture media. After this 24-hour wash out period the cells were treated with the test materials at the specified concentrations dissolved in FGM with 1.5% FBS. Sodium ascorbate (10 ug/ml) was used as a positive control. Untreated cells (negative controls) only received DMEM with […], The cells were incubated for 48 hours and at the end of the incubation period, cell culture medium was collected and either stored frozen (−75 C) or assayed immediately. Materials were tested in triplicate.
A series of type IV collagen peptide standards was prepared ranging from 0 ng/ml to 640 ng/ml. 100 μl of each standard or of each of the collected tissue culture media were added to the wells of type IV collagen ELISA plates. The plates were then incubated at 37° C. for 1 hour. After incubation, the ELISA plates were then washed twice with wash buffer, followed by the addition of 100 μl of detection antibody solution. The ELISA plates were then incubated for 1 hour at 37° C. Following incubation, the ELISA plates were washed with wash solution followed by the addition of 100 μl HEP conjugate solution and incubated at 37° C. for 30 minutes. Following the latter incubation, the ELISA plates were again washed and 100 μl of the substrate solution was added to each well and the well plates incubated for 10-30 minutes at room temperature to allow the color generation reaction to occur. At the end of the color generation reaction 100 μl of stop solution (1 N sulfuric acid) was added to each well and the plates read at 460 nm using a plate reader.
(§2) To quantify the amount of each substance present, a standard curve was generated using known concentrations of each substance. A regression analysis was performed to establish the line that best fit those data points. Absorbance values for the test materials and untreated samples were used to estimate the amount of each substance present in each sample. Treatment means were compared using ANOVA, with an […] per treatment. Statistical significance was set at p≤0.05.

Type I Collagen = Type I Collagen Assay (ELISA, fibroblast culture medium); format: cell-based, human; conditions: 10 μg/ml, 48 hours; untreated 1255 ± 83
Description: as §1
A series of type I collagen peptide standards was prepared ranging from 0 ng/ml to 640 ng/ml. An ELISA microplate was prepared by removing any unneeded strips from the plate frame followed by the addition of 100 μl of peroxidase labelled anti-procollagen type I-C peptide antibody to each well used in the assay. A 20 μl sample of each of the collected tissue culture media or a standard was then added to appropriate wells and the microplate covered and allowed to incubate for 3±0.25 hours at 37 C. Following incubation, the wells were aspirated and washed three times with 400 μl of wash buffer. After the last wash was remove 100 μl of peroxidase substrate solution (hydrogen peroxide+tetramethylbenzidine as a chromogen) was added to each well and the plate incubated for 15±4 minutes at room temperature. Following this incubation, 100 μl of stop solution (1 N sulfuric acid) was added to each well and the plate read using a microplate reader at 450 nm.
as §2

Telomerase = Telomerase Activity Quantification qPCR Assay in human dermal fibroblasts; format: cell-based; conditions: 300 nM, three days
Description: Normal neonatal human dermal fibroblasts (HDF cat, #2310; ScienCell, Oceanside, CA) were grown to confluence in the 6 well plate format and incubated with the test substances identified in Table 3 for three days. Following incubation, the cells were lysed and telomerase activity was determined with Telomerase Activity Quantification qPCR Assay Kit from ScienCell (cat. #8928). Forget-Me-Not™ EvaGreen® qPCR Master Mix (Low ROX) (Biotium, Fremont, CA) was used for real-time quantitative PCR on C1000 Touch System with CFX384™ optical module Detection. For quantifying the level of activity, the Comparative Cq method was used, following the equation: […]
where TPS is telomere primer set, which recognizes and amplifies newly synthesized telomere sequences and Cq(TPS) is the Quantification Cycle Value obtained from the qPCR software. The relative telomerase activity difference between the experimental condition and control is expressed as 2^−ΔCq Telomerase activity was considered different if the level of expression was reasonably high (Cq≤33 cycles to detect), the difference vs. control was >2 fold and the p value, assessed with two-tailed Student test, was <0.05.

Sequence of HDAC 4 (P56524 whole entry): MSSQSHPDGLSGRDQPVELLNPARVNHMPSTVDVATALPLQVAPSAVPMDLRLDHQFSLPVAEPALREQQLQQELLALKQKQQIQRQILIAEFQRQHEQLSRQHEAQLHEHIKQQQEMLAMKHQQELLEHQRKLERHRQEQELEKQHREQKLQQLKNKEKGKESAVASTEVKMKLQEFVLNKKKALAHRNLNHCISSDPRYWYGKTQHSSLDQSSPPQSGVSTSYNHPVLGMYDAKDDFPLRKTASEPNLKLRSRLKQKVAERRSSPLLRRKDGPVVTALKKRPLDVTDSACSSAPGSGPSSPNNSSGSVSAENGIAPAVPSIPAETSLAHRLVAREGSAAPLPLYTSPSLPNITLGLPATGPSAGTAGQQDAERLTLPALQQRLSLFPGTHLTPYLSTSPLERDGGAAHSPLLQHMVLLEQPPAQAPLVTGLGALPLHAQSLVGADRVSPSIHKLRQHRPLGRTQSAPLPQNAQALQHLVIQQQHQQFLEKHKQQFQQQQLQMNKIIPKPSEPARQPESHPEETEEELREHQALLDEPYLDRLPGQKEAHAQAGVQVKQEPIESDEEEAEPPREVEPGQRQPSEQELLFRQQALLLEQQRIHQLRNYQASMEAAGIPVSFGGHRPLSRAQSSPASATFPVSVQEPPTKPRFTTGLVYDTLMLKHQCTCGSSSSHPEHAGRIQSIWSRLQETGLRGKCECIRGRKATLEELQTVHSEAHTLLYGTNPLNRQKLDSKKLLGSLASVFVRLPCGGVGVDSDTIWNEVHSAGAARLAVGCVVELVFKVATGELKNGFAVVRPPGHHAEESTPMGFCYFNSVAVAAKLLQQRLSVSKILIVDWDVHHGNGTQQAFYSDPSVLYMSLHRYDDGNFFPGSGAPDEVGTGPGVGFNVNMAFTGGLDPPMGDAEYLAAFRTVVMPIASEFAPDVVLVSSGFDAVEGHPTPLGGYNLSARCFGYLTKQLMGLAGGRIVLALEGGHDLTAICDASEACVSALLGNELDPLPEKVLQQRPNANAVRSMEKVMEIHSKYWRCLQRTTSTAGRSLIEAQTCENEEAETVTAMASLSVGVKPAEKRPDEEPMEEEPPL

For `CCCC(=O)[O-].CCCC(=O)[O-].[Ca+2]` [Ca n-butyrate, reference compound], the “HDAC 4 activity, % of water-treated controls” value (“HDAC 4 activity, %” for short) (HDAC 4; 25 ug/ml) was 104%, the “HDAC 4 activity, %” value (HDAC 4; 50 ug/ml) was 102% and the “HDAC 4 activity, %” value (HDAC 4; 100 ug/ml) was 109%.
With `C=C(C)[C@@H]1CCC(C)=C[C@H]1c1c(O)cc(CCCCC)cc1O` [CBD, Cannabidiol, reference compound] the “MAGL IC50” value (MAGL) was 4,130^2 ^ μg/ml.
With `CCCC(=O)NCCCC[C@H](NC(=O)CCC)C(=O)[O-].CCCC(=O)NCCCC[C@H](NC(=O)CCC)C(=O)[O-].[Mg+2]` [Mg di-(di-n-butyryl lysinate), magnesium di-(di-n-butyryl lysinate)] the “HDAC 11 activity, % of water-treated controls” value (HDAC 11; 100 ug/ml) was 91%, the “HDAC 11 activity, % of water-treated controls” value (HDAC 11; 200 ug/ml) was 91% and the “FABP-3 IC50” value (FABP-3) was 282.5 µg/mL. For the same compound, the “HDAC 7 activity, % of water-treated controls” value (HDAC7; 100 ug/ml) was 100%, the “HDAC 7 activity, % of water-treated controls” value (HDAC7; 200 ug/ml) was 100% and the “HDAC 10 activity, % of water-treated controls” value (HDAC10; 100 ug/ml) was 98%. For the same compound, the “HDAC 10 activity, % of water-treated controls” value (HDAC10; 200 ug/ml) was 102%, the “MAGL IC50” value (MAGL) was 101 µg/mL and the “HDAC 1 activity, % of water-treated controls” value (HDAC1) was 74%. For the same compound, the “FAAH IC50” value (FAAH) was 368.5 µg/mL, the “HDAC 3 activity, % of water-treated controls” value (HDAC 3; 100 ug/ml) was 114% and the “HDAC 3 activity, % of water-treated controls” value (HDAC 3; 200 ug/ml) was 117%. The “FABP-5 IC50” value (FABP-5) was 349.1 µg/mL.
For `O=C1O[C@H]([C@@H](O)CO)C([O-])=C1O.[Na+]` [Na ascorbate, Sodium ascorbate], the “Type IV Collagen C-Peptide” value (Type IV Collagen) was 67.70 ± 5.03 ng/mL and the “Type I Collagen C-Peptide” value (Type I Collagen) was 4018 ± 196 ng/mL.
In the case of `CC(/C=C/C(=O)NO)=C\[C@@H](C)C(=O)c1ccc(N(C)C)cc1` [Trichostatin-A], the “Average Cq(TPS)” value (Telomerase) is reported as 32.3, the “Telomerase Activity (FC vs. water)” value (Telomerase) is reported as 2.8 FC and the ΔCq sample-water (Telomerase) is reported as 1.5.
